≈ marks a conversion by molar mass, not a printed value.
Legend:
HeLa-PRB cells = test: Immunocytochemistry and fluorescence microscopy, nucleocytoplasmic trafficking of steroid receptors; type: cell-based
Procedure: HeLa-PRB cells were grown in 24-well plates (Corning #3337) on micro-cover glasses (Electron Microscopy Sciences) to about 50% confluence in MEM, 1× (Cellgro #10-010-CV) medium supplemented with 10% fetal bovine serum. Cells were treated with 3 μM beauvericin (or DMSO control) for 24 h. Cells were fixed with 0.1 M PIPES, pH 6.95, 1 mM EGTA, pH 8.0, 3 mM MgSO4, 3% paraformaldehyde, permeabilized with 0.1% triton X-100, and blocked with 10% fetal bovine serum with 5% glycerol and stored at 4° C. Primary antibodies against PRB, GR and Hsp90 and secondary antibodies were prepared in the blocking buffer. Coverslips were washed and mounted on slides with ProLong Gold anti-fade reagent with 4′,6-diamidino-2-phenylindole (Invitrogen). Cells were imaged using a Zeiss Imager M1 microscope. Deconvolution of Z-stack images was done using an inverse filter algorithm with auto-linear normalization.

[1] = system: Hsp90 client proteins in Hs578T cells; test: Western blot of Hsp90 client proteins, Hs578T; type: cell-based; conditions: 3 μM, 48 h
Procedure: (§1) Breast cancer cell lines Hs578T and MDA-MB-453 at 40% confluence in 6-well plates (Corning #3516) were cultured for 24 h and then treated with various concentrations of beauvericin. Cells were harvested at indicated time and cell lysates were made. 15 μg of protein lysate were analyzed by Western blotting using specific antibodies for the indicated proteins.
(§2) Cell lysates prepared in Example 5 were analyzed for markers for heat shock response using western blot. These include overexpression of Hsp70, Hsp27, Hsp40 and HOP.

[2] = system: MDA-MB-453 breast cancer cells; test: Cytotoxicity assay, MDA-MB-453; type: cell-based; conditions: 0-10 μM, 24, 48, 72 h, FIG. 6B
[3] = system: Hsp90 client proteins in MDA-MB-453 cells; test: Western blot of Hsp90 client proteins, MDA-MB-453; type: cell-based; conditions: 3 μM, 48 h
Procedure: as §1, §2

[4] = system: Hsp90, Hsp70, Hsp40, HOP and p23; test: PR reconstitution assay using the five purified chaperones; type: biochemical; conditions: FIG. 4
Procedure: (§3) Purified PR was adsorbed onto PR22 antibody-protein A-sepharose resin beads and was assembled into complexes as described previously (Kosano, et al., J Biol Chem 273:32973-9 (1998)). Briefly, about 0.05 μM PR was incubated with 1.4 μM Hsp70, 0.8 μM Hsp90β, 0.2 μM Hsp40 (Ydj), 0.08 μM HOP and 2.6 μM p23 in reaction buffer (20 mM Tris/HCl, pH 7.5, 5 mM MgCl2, 2 mM DTT, 0.01% NP-40, 50 mM KCl and 5 mM ATP). After incubation for 30 min at 30° C., 0.1 μM [^3H]-progesterone (American Radiolabeled Chemicals, Inc #ART 0063) was added. Samples were incubated on ice for 3 h at 4° C. Complexes were then washed three times with 1 ml of reaction buffer and assessed for bound progesterone by liquid scintillation using PerkinElmer Microbeta plate reader and for composition of protein complexes by SDS-PAGE (10% gel) and Coomassie blue staining.

[5] = Sigma-Aldrich product B7510, powder; cited from earlier work
[6] = system: Hs578T breast cancer cells; test: Cytotoxicity assay, Hs578T; type: cell-based; conditions: 0-10 μM, 24, 48, 72 h, FIG. 6A
PRA complexes = test: PR reconstitution assay in tubes, composition of protein complexes by SDS-PAGE; type: biochemical, rabbit; conditions: FIG. 3
Procedure: as §3, with “Biol Chem,” for “Biol Chem”, “with 100 μl of RRL.” for “with 1.4 μM Hsp70, 0.8 μM Hsp90β, 0.2 μM Hsp40 (Ydj), 0.08 μM HOP and 2.6 μM p23 in reaction buffer (20 mM Tris/HCl, pH 7.5, 5 mM MgCl2, 2 mM DTT, 0.01% NP-40, 50 mM KCl and 5 mM ATP).”, “ml” for “ml of”, “buffer (20 mM Tris/HCl, pH 7.5, 5 mM MgCl2, 2 mM DTT, 0.01% NP-40, 50 mM KCl and 5 mM ATP)” for “buffer”, “plate reader,” for “plate reader”

[7] = system: Hsp90 chaperone (refolding of PRA in RRL); test: Progesterone receptor (PR) reconstitution assay in rabbit reticulocyte lysate, recovery of hormone binding activity; type: biochemical
From the text: To identify novel small molecule inhibitors of molecular chaperones, a high-throughput functional screen was developed based on the isoform A of progesterone receptor (PRA), a well-established physiological client of Hsp90, and using rabbit reticulocyte lysate (RRL) as a source of molecular chaperones. This comprehensive functional assay measured the recovery of hormone binding activity of PRA after mild heat treatment. Purified PR was adsorbed onto PR22 antibody bound to protein A that was absorbed on 96 well plates. 100 μl of RRL lysate and ATP regeneration system was added to each well. After incubation for 30 min at 30° C., 0.1 μM [^3H]-progesterone (American Radiolabeled Chemicals, Inc #ART 0063) was added. Plates were incubated on ice for 2 h at 4° C. Complexes were then washed three times with 200 μl of reaction buffer (20 mM Tris/HCl, pH 7.5, 5 mM MgCl2, 2 mM DTT, 0.01% NP-40, 50 mM KCl and 5 mM ATP) and assessed for bound progesterone by liquid scintillation using PerkinElmer Microbeta plate reader.
Beauvericin was added to the PR reconstitution assay as in example 1, and hormone binding activity was measured.

[8] = system: Hsp70, Hsp27, Hsp40 and HOP in Hs578T and MDA-MB-453 cells; test: Western blot of markers for heat shock response; type: cell-based; conditions: 3 μM, 48 h, FIG. 7
Procedure: as §1, §2

CC(C)[C@@H]1OC(=O)[C@@H](Cc2ccccc2)N(C)C(=O)[C@H](C(C)C)OC(=O)[C@@H](Cc2ccccc2)N(C)C(=O)[C@H](C(C)C)OC(=O)[C@@H](Cc2ccccc2)N(C)C1=O [beauvericin]
PRB stability by Western blot (HeLa-PRB cells; HeLa-PRB cells): not destabilized
PRB recognition by the monoclonal antibody PR6 in immunocytochemistry (HeLa-PRB cells; HeLa-PRB, 3 μM, 24 h): reproducibly blocked
glucocorticoid receptor (GR) localization (HeLa-PRB cells; HeLa-PRB, 3 μM, 24 h): lock it in the nucleus
AKT destabilization [1]: destabilized
Her2 destabilization [1]: reverse profile
cellular degradation of Hsp90 clients (AKT, pAKT, CDK4, ILK, Her2, Her3, GR) ([1]; FIG. 7A): caused cellular degradation
in vitro cytotoxicity (relative survival) [2]: potent in vitro cytotoxicity
AKT destabilization [3]: not
Her2 destabilization [3]: reverse profile
cellular degradation of Hsp90 clients (AKT, pAKT, CDK4, ILK, Her2, Her3, GR) ([3]; FIG. 7B): caused cellular degradation
inhibitory activity on five-protein system (PRA reconstitution) [4]: no inhibitory activity
solubility in acetonitrile [5]: 1000 µg/mL (≈ 1280 µM)
solubility in methanol [5]: 1000 µg/mL (≈ 1280 µM)
in vitro cytotoxicity (relative survival) [6]: potent in vitro cytotoxicity
level of Hsp90 in PRA complexes (PRA complexes): decreased
recruitment of Exportin-7 into PRA complexes (PRA complexes; mass spectrometry): caused the recruitment of a novel protein into these complexes
inhibition of reconstitution of PRA in RRL (hormone binding activity) ([7]; FIG. 1, compared with 17-AAG): comparable efficacy to the classical Hsp90 inhibitor 17-AAG
inhibition of the ability of the Hsp90 chaperone to refold PRA ([7]; FIG. 2, 0, 1, 5, 10, 20, 40 μM): concentration-dependent manner
Hsp40 expression [8]: down-regulates
overexpression of HOP [8]: does not induce overexpression
overexpression of Hsp27 ([8]; in contrast to 17-AAG): does not induce overexpression
overexpression of Hsp70 ([8]; in contrast to 17-AAG): does not induce overexpression
